Assay results as given in patent publication US10294202B2, “Pyrrolidinones as herbicides” (FMC Corporation, priority 2013, dated 2019).
Like-named read-outs stand apart in the source and are kept apart here.

Tests used:
[1] = tested on: wheat; assay: Test A pre-/postemergence herbicide test; format: in vivo, Triticum aestivum; details: for Wheat plant response rating: Preemergence, visual rating on 0 to 100 scale (0 no effect, 100 complete control); for plant injury at 500 g/ha / plant injury at 125 g/ha: Triticum aestivum, 240 h, read-out: Plant response rating, Wheat
Method in brief: (§1)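 Seeds sown in loam soil/sand blend received a preemergence directed soil spray of test chemical in non-phytotoxic solvent with surfactant; postemergence plants (2–10 cm, one- to two-leaf stage) were sprayed with the same formulation. After about 10 days in greenhouse, injury was rated visually versus untreated controls, 0 (no effect) to 100 (complete control).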

[2] = tested on: barnyardgrass; assay: Test A pre-/postemergence herbicide test; format: in vivo, Echinochloa crus-galli; details: for Barnyardgrass plant response rating: Preemergence, visual rating on 0 to 100 scale (0 no effect, 100 complete control); for pest or weed control at 125 g/ha / pest or weed control at 500 g/ha: Echinochloa crus-galli, 240 h, read-out: Plant response rating, Barnyardgrass
Method in brief: as §1

[3] = tested on: pigweed; assay: Test A pre-/postemergence herbicide test; format: in vivo, Amaranthus retroflexus; details: for Pigweed plant response rating: Preemergence, visual rating on 0 to 100 scale (0 no effect, 100 complete control); for pest or weed control at 500 g/ha / pest or weed control at 125 g/ha: Amaranthus retroflexus, 240 h, read-out: Plant response rating, Pigweed
Method in brief: as §1

[4] = tested on: wheat (winter wheat); assay: Test C pre-/postemergence herbicide test; format: in vivo, Triticum aestivum; details: Preemergence
Excerpt: (§2) Seeds of plant species selected from blackgrass (Alopecurus myosuroides), ryegrass, Italian (Italian ryegrass, Lolium multiflorum), wheat (winter wheat, Triticum aestivum), galium (catchweed bedstraw, Galium aparine), corn (Zea mays), crabgrass, large (large crabgrass, Digitaria sanguinalis), foxtail, giant (giant foxtail, Setaria faberii), johnsongrass (Sorghum halepense), lambsquarters (Chenopodium album), morningglory (Ipomoea coccinea), nutsedge, yellow (yellow nutsedge, Cyperus esculentus), pigweed (Amaranthus retroflexus), ragweed (common ragweed, Ambrosia elatior), soybean (Glycine max), barnyardgrass (Echinochloa crus-galli), oilseed rape (Brassica napus), waterhemp (common waterhemp, Amaranthus rudis), kochia (Kochia scoparia), oat, wild (wild oat, Avena fatua), surinam grass (Brachiaria decumbens), foxtail, green (green foxtail, Setaria viridis), goosegrass (Eleusine indica), bromegrass, downy (downy bromegrass, Bromus tectorum), nightshade (eastern black nightshade, Solanum ptycanthum), cocklebur (common cocklebur, Xanthium strumarium), cupgrass, woolly (woolly cupgrass, Eriochloa villosa), bermudagrass (Cynodon dactylon), sunflower, (common oilseed sunflower, Helianthus annuus), Russian thistle (Salsola kali) and velvetleaf (Abutilon theophrasti) were planted into a blend of loam soil and sand and treated preemergence with test chemicals formulated in a non-phytotoxic solvent mixture which included a surfactant. At the same time, plants selected from these crop and weed species and also barley (winter barley, Hordeum vulgare), […]), chickweed (common chickweed, Stellaria media), deadnettle (henbit deadnettle, Lamium amplexicaule), and canarygrass (littleseed canarygrass, Phalaris minor) were planted in pots containing Redi-Earth® planting medium (Scotts Company, 14111 Scottslawn Road, Marysville, Ohio 43041) comprising spaghnum peat moss, vermiculite, wetting agent and starter nutrients and treated with postemergence applications of test chemicals formulated in the same manner. Plants ranged in height from 2 to 18 cm (1- to 4-leaf stage) for postemergence treatments. Treated plants and controls were maintained in a greenhouse for 13 to 15 days, after which time all species were compared to controls and visually evaluated. Plant response ratings, summarized in Table C, are based on a scale of 0 to 100 where 0 is no effect and 100 is complete control. A dash (-) response means no test result.

[5] = tested on: galium; assay: Test C pre-/postemergence herbicide test; format: in vivo, Galium aparine; details: Preemergence; for Galium plant response rating: 31 g ai/ha
Excerpt: as §2

[6] = tested on: nutsedge, yellow; assay: Test C pre-/postemergence herbicide test; format: in vivo, Cyperus esculentus; details: Preemergence
Excerpt: as §2

[7] = tested on: ryegrass, Italian; assay: Test C pre-/postemergence herbicide test; format: in vivo, Lolium multiflorum; details: Preemergence
Excerpt: as §2

[8] = tested on: blackgrass; assay: Test C pre-/postemergence herbicide test; format: in vivo, Alopecurus myosuroides; details: Preemergence; for Blackgrass plant response rating: 31 g ai/ha
Excerpt: as §2

[9] = Postemergence, 500 g ai/ha, 0 to 100 scale (0 no effect, 100 complete control)
[10] = preemergence, 500 g ai/ha, 0 to 100 scale
[11] = Postemergence, 125 g ai/ha, 0 to 100 scale, 0 no effect, 100 complete control
[12] = preemergence, 500 g ai/ha, 0 to 100 scale (0 no effect, 100 complete control)
[13] = 125 g ai/ha, scale 0 to 100 (0 no effect, 100 complete control)
[14] = scale 0 to 100 (0 no effect, 100 complete control)
[15] = 250 g ai/ha, scale 0 to 100 (0 no effect, 100 complete control)
[16] = Postemergence, 125 g ai/ha, 0 to 100 scale, 0 is no effect, 100 is complete control
[17] = 125 g ai/ha, visual rating, 0 to 100 scale, 0 no effect, 100 complete control, approximately 10 days, preemergence
[18] = preemergence, 500 g ai/ha, 0 to 100 scale, 0 is no effect and 100 is complete control
[19] = post-emergence, Postemergence, 500 g ai/ha, 0 to 100 scale (0 no effect, 100 complete control)
[20] = pre-emergence, preemergence, 500 g ai/ha, 0 to 100 scale
[21] = post-emergence, Postemergence, 125 g ai/ha, 0 to 100 scale, 0 no effect, 100 complete control
[22] = pre-emergence, preemergence, 500 g ai/ha, 0 to 100 scale (0 no effect, 100 complete control)

Row | Structure (SMILES) | Plant response rating, Wheat [1, 9] | Wheat plant response rating ([1]; 125 g ai/ha) | Plant response rating, Wheat [1, 10] | Plant response rating, Barnyardgrass [2, 11] | Plant response rating, Barnyardgrass [2, 9] | Barnyardgrass plant response rating ([2]; 125 g ai/ha) | Plant response rating, Barnyardgrass [2, 12] | Plant response rating, Pigweed [3, 9] | Pigweed plant response rating ([3]; 125 g ai/ha) | Plant response rating, Pigweed [3, 10] | Plant response rating, Wheat ([4]; 62 g ai/ha, scale 0 to 100) | Plant response rating, Wheat [4, 13] | Plant response rating, Galium ([5]; 62 g ai/ha, scale 0 to 100) | plant injury at 500 g/ha [1, 19] | plant injury at 500 g/ha [1, 20] | pest or weed control at 125 g/ha [2, 21] | pest or weed control at 500 g/ha [2, 19] | pest or weed control at 500 g/ha [2, 22] | pest or weed control at 500 g/ha [3, 19] | pest or weed control at 500 g/ha [3, 20] | also measured
1 | O=C1NCC(c2ccc(F)c(F)c2)C1C(=O)Nc1ccccc1C(F)(F)F (racemic) [Compound 6] | 0 | 0 | 0 | 40 | 80 | 50 | 80 | 10 | 0 | 0 |  |  |  |  |  |  |  |  |  |  | 
2 | O=C1NCC(c2ccc(Cl)c(Cl)c2)C1C(=O)Nc1ccccc1F (racemic) [Compound 14] | 0 | 0 | 0 | 60 | 80 | 80 | 90 | 0 | 0 | 20 | 10 | 10 | 0 |  |  |  |  |  |  |  | Plant response rating, Galium [5, 13]: 70; Galium plant response rating [5, 14]: 0; Plant response rating, Galium [5, 15]: 85; Plant response rating, Nutsedge, Yellow ([6]; 62 g ai/ha, scale 0 to 100): 0; Plant response rating, Nutsedge, Yellow [6, 13]: 0; Plant response rating, Wheat [1, 11]: 0; Plant response rating, Ryegrass, Italian ([7]; 62 g ai/ha, scale 0 to 100): 0; Plant response rating, Ryegrass, Italian [7, 13]: 0; Plant response rating, Pigweed [3, 11]: 0; Plant response rating, Blackgrass ([8]; 62 g ai/ha, scale 0 to 100): 0; Plant response rating, Blackgrass [8, 13]: 0; Blackgrass plant response rating [8, 14]: 0; Plant response rating, Blackgrass [8, 15]: 0
3 | O=C1NCC(c2cccc(C(F)F)c2)C1C(=O)Nc1ccccc1F (racemic) [Compound 210] |  |  |  |  |  |  |  |  |  |  |  |  |  |  |  |  |  |  |  |  | Plant response rating, Wheat [1, 16]: 0; Wheat plant response rating (0 to 100 scale, 0 is no effect, 100 is complete control) ([1]; Postemergence, 500 g ai/ha): 50; Plant response rating, Barnyardgrass [2, 17]: 60; Plant response rating, Barnyardgrass [2, 16]: 80; Barnyardgrass plant response rating (0 to 100 scale, 0 is no effect, 100 is complete control) ([2]; Postemergence, 500 g ai/ha): 90; Plant response rating, Barnyardgrass [2, 18]: 90; Plant response rating, Pigweed [3, 17]: 0; Plant response rating, Pigweed [3, 16]: 0; Pigweed plant response rating (0 to 100 scale, 0 is no effect, 100 is complete control) ([3]; Postemergence, 500 g ai/ha): 20; Plant response rating, Pigweed [3, 18]: 50
4 | O=C1NCCC1C(=O)N(c1ccc(F)c(F)c1)c1ccccc1F (stereo not drawn) [Compound 5, N-(3,4-difluorophenyl)-N-(2-fluorophenyl)-2-oxo-3-pyrrolidinecarboxamide] |  | 0 |  |  |  | 70 |  |  | 0 |  | 0 | 5 | 5 | 0% | 0% | 60% | 90% | 90% | 0% | 0% | Galium plant response rating [5, 14]: 0; Plant response rating, Galium [5, 15]: 40; Plant response rating, Nutsedge, Yellow ([6]; 62 g ai/ha, scale 0 to 100): 0; Plant response rating, Nutsedge, Yellow [6, 13]: 0; Plant response rating, Ryegrass, Italian ([7]; 62 g ai/ha, scale 0 to 100): 0; Plant response rating, Ryegrass, Italian [7, 13]: 0; Plant response rating, Blackgrass ([8]; 62 g ai/ha, scale 0 to 100): 0; Plant response rating, Blackgrass [8, 13]: 0; Blackgrass plant response rating [8, 14]: 0; Plant response rating, Blackgrass [8, 15]: 30
5 | O=C1NCC(Br)(c2ccccc2)C1C(=O)Nc1ccccc1F (stereo not drawn) [Compound 92, 4-bromo-N-(2-fluorophenyl)-2-oxo-4-phenyl-3-pyrrolidinecarboxamide] |  | 0 |  |  |  | 60 |  |  | 0 |  |  |  |  | 0% | 0% | 20% | 70% | 90% | 0% | 0% | plant injury at 125 g/ha [1, 21]: 0%; pest or weed control at 125 g/ha [3, 21]: 0%
6 | O=C1NCC(c2ccccc2)C1(Br)C(=O)Nc1ccccc1F (stereo not drawn) [Compound 93, 3-bromo-N-(2-fluorophenyl)-2-oxo-4-phenyl-3-pyrrolidinecarboxamide] |  | 0 |  |  |  | 50 |  |  | 0 |  |  |  |  | 0% | 0% | 10% | 60% | 90% | 0% | 0% | plant injury at 125 g/ha [1, 21]: 0%; pest or weed control at 125 g/ha [3, 21]: 0%
